# Where a SMILES comes first, the peptide text is derived from it. Bridges are numbered along the chain shown (N, C = ends). [ ]: non-standard residue; d: D form. Sar = CNCC(=O)O
# How the values were obtained:
# [1] = molecular target: human NTCP on cells (HepG2-hNTCP-C4 cells overexpressing the human NTCP gene; primary human hepatocytes) (human) (UniProt Q14973); test: cell-based or functional assay
# HBV genotype D [2] = test: HBV infection assay in HepG2-hNTCP-C4 cells (HBs and HBc antigens); assay type: cell-based, hepatitis B virus; conditions: 100 nM entecavir
# Method: HBs antigen secreted into a culture supernatant (a) and HBc antigen in the cells (b) were detected by ELISA and an immunofluorescence method, respectively. A cell survival rate was measured by quantifying total cellular DNA (c). The staining images of (b) each show the HBc antigen and the nucleus. […] HBs antigen secreted into a culture supernatant was detected by ELISA. Data is indicated by mean±SD. Statistical significance was determined by use of Student's t test as to all numbers (*P<0.05, **P<0.01, N.S.: not significant). […]
# HBs antigen was quantified by enzyme-linked immunosorbent assay (ELISA) as described in a known method (the method described in Watashi, K. et al. Interleukin-1 and tumor necrosis factor-alpha trigger restriction of hepatitis B virus infection via a cytidine deaminase activation-induced cytidine deaminase (AID). The Journal of biological chemistry 288, 31715-31727 (2013)). […]
# After HBV inoculation, HBs antigen was measured in a culture supernatant, and HBc antigen was evaluated in the cells to confirm HBV infection, as shown in FIG. 2(a).
# human NTCP = molecular target: T1, human NTCP (Homo sapiens, UniProt Q14973); test: Surface plasmon resonance binding to immobilized recombinant NTCP; conditions: single-cycle kinetics, 1:1 binding model, NTCP immobilized on NTA-Ni2+, read-out: Kd
# T1 construct: made in house; host or cells: wheat germ cell-free protein synthesis system
# T1 sequence (Q14973 1-349): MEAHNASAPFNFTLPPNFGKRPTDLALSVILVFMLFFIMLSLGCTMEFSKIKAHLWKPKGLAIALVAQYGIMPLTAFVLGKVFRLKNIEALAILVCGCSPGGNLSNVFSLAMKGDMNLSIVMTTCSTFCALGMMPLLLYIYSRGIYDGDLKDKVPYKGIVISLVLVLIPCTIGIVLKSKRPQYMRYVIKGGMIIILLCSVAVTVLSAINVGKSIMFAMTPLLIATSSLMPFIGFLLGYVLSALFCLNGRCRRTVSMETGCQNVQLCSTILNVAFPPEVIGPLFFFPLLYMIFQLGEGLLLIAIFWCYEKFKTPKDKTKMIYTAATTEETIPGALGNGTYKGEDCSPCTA
# Method: (§1) FIG. 7 is a diagram showing the NTCP association constant of a peptide identified by first RaPID screening. A single-cycle reaction kinetics experiment was conducted using NTCP immobilized on surface (NTA-Ni^2+) involving varying concentrations of a cyclic peptide analyte. In each case, as shown in the drawing, the peptide was tested with 4-fold serial dilutions starting from the highest concentration of 200 or 1000 nM. A dissociation constant (KD) was determined using a 1:1 binding model.
# as §1, with “9” for “7”, “focused library” for “first”, “association constant” for “reaction kinetics”
# The association constant of each peptide for human NTCP was measured using a Biacore T200 apparatus (GE Healthcare Japan Corp.). The running buffer solution used was HBS-P+ (10 mM HEPES, 150 mM NaCl, and 0.05 vol % surfactant P20, pH 7.4) containing 0.1 vol % DMSO and 1 mM β-dodecyl-maltoside. 100 nM recombinant NTCP was immobilized on a NTA chip treated with Ni^2+ according to the manufacturer's instructions (baseline response: 1000 to 3000 refraction units). Peptides were injected as analytes at a flow rate of 60 μL/min, and association constants were modelled using a 1:1 binding model.
# HBV genotype D [3] = assay type: cell-based, hepatitis B virus; conditions: primary human hepatocytes, purified HBV as inoculum, HBs antigen in culture supernatant; read-out: 50% inhibitory concentrations (IC50), HBs antigen
# Method: FIG. 2 is a diagram showing the anti-HBV effect of a peptide from initial screening. FIG. 2(a) is a schematic diagram of a HepG2-hNTCP-C4 infection experiment. HepG2-hNTCP-C4 cells were pretreated with a peptide for 2 hours and subsequently inoculated with HBV for 16 hours in the presence of the peptide. Free HBV and peptide were washed off. Then, the cells were further cultured for 12 days in the absence of the peptide, and HBV infection was evaluated on the basis of measurement of HBs antigen in the culture supernatant. The filled boxes and the broken-line boxes depict periods for which the treatment was performed and periods for which the treatment was not performed, respectively. […] HBV infection was evaluated by monitoring HBs antigen secreted into a culture supernatant on 12 days after inoculation by ELISA. In FIG. 2(c), a cell survival rate was measured by MTT assay.
# FIG. 3 is a diagram showing the anti-HBV effect of a peptide by focused library screening. […] HBV infection was evaluated by measurement of HBe antigen (a), and a cell survival rate (b) was evaluated by MTT assay as shown in FIG. 2.
# HBV genotype D used in this study (FIGS. 1 to 3) was derived from the culture supernatant of Hep38.7-Tet cells, and prepared by a known method (the method described in Tsukuda, S. et al. Dysregulation of retinoic acid receptor diminishes hepatocyte permissiveness to hepatitis B virus infection through modulation of sodium taurocholate cotransporting polypeptide (NTCP) expression. The Journal of biological chemistry 290, 5673-5684 (2015), and Ogura, N., Watashi, K., Noguchi, T. & Wakita, T. Formation of covalently closed circular DNA in Hep38.7-Tet cells, a tetracycline inducible hepatitis B virus expression cell line. Biochemical and biophysical research communications 452, 315-321 (2014)). Purified HBV (FIG. 1(d)) was prepared by ultrafiltration to remove an excess of components in FBS and medium. HBV genotypes A, B, and C and genotype C having the L180M/S202G/M204V mutations (nucleoside analog-resistant HBV) or G145R substitution (vaccine-escape HBV) (FIG. 4(d)) were prepared from the culture supernatant of HepG2 cells transfected with the corresponding expression plasmid. HBV was inoculated at 12,000 (FIGS. 1(a), 1(b), and 1(d)), 1000 to 2000 (FIG. 2(b)) or 500 (FIGS. 3(a) and 4(d)) genome equivalents (GEq)/cell in the presence of 4% polyethylene glycol 8000 (PEG8000) and incubated at 37° C. for 16 hours by a known method (the method described in Watashi, K. et al. Interleukin-1 and tumor necrosis factor-alpha trigger restriction of hepatitis B virus infection via a cytidine deaminase activation-induced cytidine deaminase (AID). The Journal of biological chemistry 288, 31715-31727 (2013)).
# HBe antigen was detected by a chemiluminescence immunoassay (CLIA) (LSI Medience Corp.). HBs antigen was quantified by enzyme-linked immunosorbent assay (ELISA) as described in a known method (the method described in Watashi, K. et al. Interleukin-1 and tumor necrosis factor-alpha trigger restriction of hepatitis B virus infection via a cytidine deaminase activation-induced cytidine deaminase (AID). The Journal of biological chemistry 288, 31715-31727 (2013)).
# Subsequently, the present inventors evaluated the effect of the 10 peptides described above on HBV infection in primary human hepatocytes. […] HBV infection was evaluated by measuring HBs antigen in the culture supernatant. […]
# HepG2-hNTCP-C4 cells = conditions: HBV infection assay
# Method: HBs antigen secreted into a culture supernatant (a) and HBc antigen in the cells (b) were detected by ELISA and an immunofluorescence method, respectively. A cell survival rate was measured by quantifying total cellular DNA (c). […] Data is indicated by mean±SD. Statistical significance was determined by use of Student's t test as to all numbers (*P<0.05, **P<0.01, N.S.: not significant).
Compound,"50% inhibitory concentration (IC50), HBs antigen in culture supernatant, HBV infection assay [1]",HBV infection monitored by HBc antigen (HBV genotype D [2]),HBV infection monitored by HBs antigen (HBV genotype D [2]),Kd (human NTCP),IC50 (HBV genotype D [3]),solubility,"cytotoxicity (cell survival rate, total cellular DNA) (HepG2-hNTCP-C4 cells)"
cyclosporin A (peptide),3170 nM,–,–,–,–,–,–
C=C1[C@H](CO)[C@@H](O)C[C@@H]1n1cnc2c(=O)[nH]c(N)nc21 [entecavir],–,did not exhibit a significant reduction,did not exhibit a significant reduction,–,–,–,–
CC[C@H](C)[C@@H]1NC(=O)[C@H](Cc2ccccc2)NC(=O)[C@@H](Cc2ccc(O)cc2)NC(=O)CSC[C@@H](C(=O)N[C@H](C(N)=O)[C@@H](C)O)NC(=O)[C@H](CO)NC(=O)[C@H](Cc2c[nH]c3ccccc23)NC(=O)[C@H]([C@@H](C)O)NC(=O)[C@H](Cc2c[nH]c3ccccc23)NC(=O)[C@H]([C@@H](C)O)NC(=O)[C@H](Cc2c[nH]c3ccccc23)NC(=O)[C@H]([C@@H](C)O)NC(=O)CN(C)C(=O)[C@H](C(C)C)NC(=O)[C@H]([C@@H](C)CC)NC1=O [WD1] ({CH2CO}-[dY]FIIV[Sar]TWTWTWSCT-NH2; thioether N-14),–,–,–,15 nM,850 ± 10 nM,~30 µM,without marked cytotoxicity
CC[C@H](C)[C@@H]1NC(=O)[C@H](Cc2c[nH]c3ccccc23)NC(=O)[C@H]([C@@H](C)CC)NC(=O)[C@H](C(C)C)NC(=O)[C@H](Cc2ccc(O)cc2)NC(=O)CSC[C@@H](C(=O)N[C@H](C(N)=O)[C@@H](C)O)NC(=O)[C@H](Cc2ccc(O)cc2)NC(=O)[C@H](Cc2ccc(O)cc2)NC(=O)[C@H](Cc2ccccc2)NC(=O)[C@H](Cc2c[nH]cn2)NC(=O)[C@H](CC(N)=O)NC(=O)[C@@H]2CCCN2C(=O)[C@H](Cc2c[nH]c3ccccc23)NC1=O [WL4] ({CH2CO}-YVIWIWPNHFYYCT-NH2; thioether N-13),–,–,–,42 nM,660 ± 30 nM,~30 µM,without marked cytotoxicity

# Source: patent US20210061859A1, “NTCP Inhibitor” (The University of Tokyo, priority 2018, published 2021)
